# Results as given in US20170108514A1, “DIAGNOSIS OF MULTIPLE SCLEROSIS IN HUMAN AND ANIMAL SUBJECTS” (THE REGENTS OF THE UNIVERSITY OF COLORADO, a body corporate, priority 2014, published 2017).
# Counter-ions that a name gives are not always drawn.
# Assays:
# [1] = system: multiple sclerosis patients; details: human, in vivo; cited from earlier work
# [2] = system: multiple sclerosis patients; details: cited from earlier work; for relapses / attacks: clinical reports; for relapses / attacks / disease / disability progression / MRI / MRI lesions: MS patients
# [3] = system: Th40 cells from MS subjects; assay: Antigen assay: proliferation of CFSE-labeled T cells (Th40) exposed to autologous APC/peptide antigen for 7 days; assay type: cell-based, human
# [4] = DR4 co-expressed with DR2, antigen 5 μg/ml
# [5] = DR4 co-expressed with DR6, antigen 5 μg/ml
# [6] = DR6 a fixed allele, any haplotype at other allele, antigen 5 μg/ml
# [7] = RRMS subjects, DR2 at one allele, other allele any haplotype, antigen 5 μg/ml
# [8] = DR2 and DR6 co-expressed, antigen 5 μg/ml
# [9] = DR6 at both alleles, antigen 5 μg/ml
# [10] = DR4 expressing MS subjects, open second allele, antigen 5 μg/ml
compound,measurement,setting,value
"C/C(O)=C(\C#N)C(=O)Nc1ccc(C(F)(F)F)cc1 [Aubagio, teriflunomide]",safety in patients,[1],moderate potential for hepatotoxicity
"CCCCCCCCc1ccc(CCC(N)(CO)CO)cc1 [Gilenya, fingolimod]",safety in patients,[1],extremely immune-suppressive
"O=C1c2c(O)ccc(O)c2C(=O)c2c(NCCNCCO)ccc(NCCNCCO)c21 [Novantrone, mitoxantrone]",relapses / attacks,[2],lessens relapses
same,disease / disability progression,[2]; reports,slows progression
"COC(=O)/C=C/C(=O)OC [Tecfidera, dimethyl fumarate]",relapses / attacks,[2],some reduction in the average annual number of relapses
same,disease / disability progression,[2]; reports,not reduced significantly
"ADPGSRPHLIRLFSRDAPGR [MBP83, MS associated peptide antigen from MBP]",antigen response by Th40 cells,[3]; [4],diminished
same,antigen response by Th40 cells,[3]; [5],increased
same,antigen response by Th40 cells,[3]; [6],best response
same,antigen response by Th40 cells,[3]; [7],least reactive
"AQGTLSKIFKLGGRDSRSGSPMARR [MBP146, MS associated peptide antigen from MBP]",antigen response by Th40 cells,[3]; [8],no response
same,antigen response by Th40 cells,[3]; [9],worst response antigen
"FFRDHSYQE [MOG99, MS associated peptide antigen from MOG]",antigen response by Th40 cells,[3]; [8],significantly less response
same,antigen response by Th40 cells,[3]; [4],remains high
same,antigen response by Th40 cells,[3]; [5],unaffected
same,antigen response by Th40 cells,[3]; [10],responded
same,antigen response by Th40 cells,[3]; [7],best antigen response
Glatiramer acetate [Copaxone],relapses / attacks,[2],decreasing frequency and severity of attacks
same,MRI / MRI lesions,[2]; reports,no reports of changes in MRI lesions
"LVERGNHSKIVAGVLGLI [PLP103, MS associated peptide antigen from PLP]",antigen response by Th40 cells,[3]; [8],significantly greater than the remaining antigens tested
same,antigen response by Th40 cells,[3]; [10],equally
same,antigen response by Th40 cells,[3]; [6],best response
same,antigen response by Th40 cells,[3]; [9],best Th40 response
"MEVGWYRPPFSRVVHLYRNGK [MOG35, MS associated peptide antigen from MOG]",antigen response by Th40 cells,[3]; [8],prominent response antigen
same,antigen response by Th40 cells,[3]; [10],very little response
Natalizumab [Tysabri],MRI / MRI lesions,[2]; reports,some positive effects on MRI
same,disease / disability progression,[2]; reports,slow progression
same,reduction in relapse rate,"[2]; reports, MS subjects, IV infusion once every four weeks",two-thirds
alemtuzumab [Lemtrada],safety in patients,[1],significantly increases the risk for opportunistic infections
